Assay results reported in US4629782A, “Crystalline form of N-acetylmuramyl-L-α-aminobutyryl-D-isoglutamine” (Syntex (U.S.A.) Inc., priority 1984, dated 1986).

Key:
[1] = Hygroscopicity, visual comparison at 76% relative humidity and ambient temperature; type: physicochemical; conditions: 76% relative humidity, ambient temperature, visual observation
From the text: The crystalline monohydrate of this invention is less hygroscopic than amorphous ABU-MDP. This is readily observed by visually comparing samples of each in separate containers at 76% relative humidity and ambient temperature.

[2] = Thermogravimetric analysis (TGA) after vacuum drying and exposure to air; type: physicochemical; conditions: dried under house vacuum 12 hours, exposed to air about 3 hours; 1.5% initial weight loss attributed to surface water
Description: The mole ratio of water to ABU-MDP in the crystalline monohydrate of formula (1) was determined by thermogravimetric analysis (TGA). A small amount of the monohydrate prepared in accordance with Example II was dried under "house" vacuum for 12 hours and then exposed to air for about 3 hours. […] This analysis was conducted with a Perkin Elmer TGS-2 thermogravimetric balance. The heating rate was 2.5° C. per minute from 40° C. to 160° C. A dry nitrogen purge was maintained throughout each run.

Row | Hygroscopicity indicated by TGA [2] | Substance | Hygroscopicity: physical state on exposure to humidity [1]
1 | – | N-acetylmuramyl-L-α-aminobutyryl-D-isoglutamine [Amorphous ABU-MDP, reference compound] | turns into a syrupy solution within about an hour
2 | slightly hygroscopic | acetylmuramyl-L-α-aminobutyryl-D-isoglutamine monohydrate [Crystalline monohydrate] | remains a solid
